pIC50: −log10 of the molar value. Read-outs that look alike come from different tables or passages of the source.
Tests used:
SIRT2 = target: T1, SIRT2 (Homo sapiens, UniProt Q8IXJ6); assay: mass spectrometry based assay to identify modulators of SIRT2 inhibition; type: biochemical
T1 sequence (Q8IXJ6 1-389): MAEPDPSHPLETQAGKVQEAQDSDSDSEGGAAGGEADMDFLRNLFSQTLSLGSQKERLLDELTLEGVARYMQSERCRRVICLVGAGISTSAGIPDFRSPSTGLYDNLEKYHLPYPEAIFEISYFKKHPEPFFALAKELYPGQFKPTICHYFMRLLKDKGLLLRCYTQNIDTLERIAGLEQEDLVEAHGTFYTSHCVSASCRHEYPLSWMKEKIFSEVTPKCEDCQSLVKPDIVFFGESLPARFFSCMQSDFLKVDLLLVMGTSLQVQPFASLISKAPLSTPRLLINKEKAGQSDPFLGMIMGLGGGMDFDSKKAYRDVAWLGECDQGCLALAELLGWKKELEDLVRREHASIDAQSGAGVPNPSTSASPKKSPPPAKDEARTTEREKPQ
Text: (§1) A mass spectrometry based assay was used to identify modulators of SIRT2 inhibition. […] The peptide is labeled with the fluorophore 5TMR (excitation 540 nm/emission 580 nm) at the C-terminus. The sequence of the peptide substrate is based on p53 with several modifications. In addition, the methionine residue naturally present in the sequence was replaced with the norleucine because the methionine may be susceptible to oxidation during synthesis and purification.
(§2) Test compounds may be added to the reaction as described above. The SirT2 gene is cloned into a T7-promoter containing vector and transformed into BL21(DE3). After the 30 minute incubation with SIRT2, 10 μL of 10% formic acid is added to stop the reaction. Reactions are sealed and frozen for later mass spec analysis. Determination of the mass of the substrate peptide allows for precise determination of the degree of acetylation (i.e. starting material) as compared to deacetylated peptide (product).
(§3) This timepoint is the same as that used for test compounds and, within the linear range, the endpoint represents a change in velocity.
For the above assay, SIRT2 protein was expressed and purified as follows. The SirT2 gene was cloned into a T7-promoter containing vector and transformed into BL21(DE3) with chaperone plasmid. The protein was expressed by induction with 0.3 mM IPTG as an N-terminal His-tag fusion protein at 18° C. overnight and harvested at 30,000×g. Cells were lysed with sonication in lysis buffer (50 mM Tris-HCl, 10% glycerol, 300 mM NaCl, pH 7.8) for 10 min. The protein was purified over a Ni-NTA column (GE Healthcare) and eluted with lysis buffer containing 100 to 250 mM imidazole. Fractions containing target protein were pooled and TEV protease (Invitrogen) was added to the protein and incubated at 4° C. overnight in lysis buffer to remove the N-terminal His tag. The treated sample was added back on Ni-NTA column. Target protein was obtained by eluting with lysis buffer with 5 mM imidazole and loaded onto the Q-Sepharose F.F. column. The flow-through fraction of Q-Sepharose F.F. column was then directly re-adsorbed on the SP-Sepharose F.F. column and eluted with 20 mM Tris-HCl, 100 mM NaCl, pH 7.8. The protein was concentrated with 50 ml Amicon Ultra centrifugal-filter device (Millipore), then loaded on S-200 gel filtration column and eluted with 20 mM Tris-HCl, 200 mM NaCl, pH 8.0. The protein was aliquoted and frozen at −80° C. until further use.

SIRT1 = target: T2, SIRT1 (Homo sapiens, UniProt Q96EB6); assay: mass spectrometry based assay to identify modulators of SIRT1 activity; type: biochemical; conditions: for Emax: 25 min, percent maximum fold activation of SIRT1, read-out: SIRT1 % FOLD ACT.; for EC1.5 (concentration for 1.5-fold activation): concentration for 1.5-fold activation of SIRT1 deacetylase, 0.5 μM peptide substrate, 120 μM βNAD+, 10 nM SIRT1, 25 min at 25° C.
T2 sequence (Q96EB6 1-747): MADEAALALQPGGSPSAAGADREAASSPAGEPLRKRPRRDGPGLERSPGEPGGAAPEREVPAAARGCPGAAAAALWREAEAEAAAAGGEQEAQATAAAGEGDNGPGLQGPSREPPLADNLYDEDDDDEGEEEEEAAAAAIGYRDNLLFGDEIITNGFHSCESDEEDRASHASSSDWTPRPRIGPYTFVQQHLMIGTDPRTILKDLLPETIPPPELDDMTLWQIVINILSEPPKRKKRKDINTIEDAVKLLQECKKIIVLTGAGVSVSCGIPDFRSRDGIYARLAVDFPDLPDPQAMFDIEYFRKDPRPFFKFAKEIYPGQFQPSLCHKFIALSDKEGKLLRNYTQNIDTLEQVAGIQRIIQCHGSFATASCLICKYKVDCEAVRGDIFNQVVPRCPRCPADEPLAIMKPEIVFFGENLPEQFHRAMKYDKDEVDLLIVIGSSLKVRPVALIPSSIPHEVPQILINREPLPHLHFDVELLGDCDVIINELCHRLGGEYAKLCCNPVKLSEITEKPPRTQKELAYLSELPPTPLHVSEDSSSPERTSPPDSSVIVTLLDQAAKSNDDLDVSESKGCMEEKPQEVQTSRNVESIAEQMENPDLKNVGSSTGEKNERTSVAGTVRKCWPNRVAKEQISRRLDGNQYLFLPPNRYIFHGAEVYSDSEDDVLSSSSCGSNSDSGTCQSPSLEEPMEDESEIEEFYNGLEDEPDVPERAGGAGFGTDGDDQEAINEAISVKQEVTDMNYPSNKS
Text: as §1, with “SIRT1 activity.” for “SIRT2 inhibition.”
as §2, with “SirT1” for “SirT2”, “25” for “30”, “SIRT1,” for “SIRT2,”
as §3
For the above assay, SIRT1 protein was expressed and purified as follows. The SirT1 gene was cloned into a T7-promoter containing vector and transformed into BL21(DE3). The protein was expressed by induction with 1 mM IPTG as an N-terminal His-tag fusion protein at 18° C. overnight and harvested at 30,000×g. Cells were lysed with lysozyme in lysis buffer (50 mM Tris-HCl, 2 mM Tris[2-carboxyethyl]phosphine (TCEP), 10 μM ZnCl2, 200 mM NaCl) and further treated with sonication for 10 min for complete lysis. The protein was purified over a Ni-NTA column (Amersham) and fractions containing pure protein were pooled, concentrated and run over a sizing column ([…]). The peak containing soluble protein was collected and run on an Ion-exchange column (MonoQ). Gradient elution (200 mM-500 mM NaCl) yielded pure protein. This protein was concentrated and dialyzed against dialysis buffer (20 mM Tris-HCl, 2 mM TCEP) overnight. The protein was aliquoted and frozen at −80° C. until further use.

[1] = 2.68 μM peptide substrate, 135 μM βNAD+, 50 nM SIRT2, 30 min at room temperature, read-out: SIRT2 IC50 UM

Structure (SMILES)	pIC50 (SIRT2; [1])	Emax (SIRT1) [%]	EC1.5 (concentration for 1.5-fold activation) (SIRT1; read-out: SIRT1 EC1.5 UM) [µM]	pIC50 (SIRT2)	EC1.5 (concentration for 1.5-fold activation) (SIRT1; read-out: SIRT1 EC1.5 µM) [µM]
Cc1nc2cccc(NC(=O)c3cnccn3)c2c(=O)n1-c1cccc(C(F)(F)F)c1 [Compound 2, N-(2-methyl-4-oxo-3-(3-(trifluoromethyl)phenyl)-3,4-dihydroquinazolin-5-yl)pyrazine-2-carboxamide]	–	> 150	–	4.30 to 5.00	< 50
Cc1nc2cccc(NC(=O)c3cscn3)c2c(=O)n1-c1cccc(OC(F)(F)F)c1 [Compound 3, N-(2-methyl-4-oxo-3-(3-(trifluoromethoxy)phenyl)-3,4-dihydroquinazolin-5-yl)thiazole-4-carboxamide]	> 5.00	< 150	> 50	–	–
Cc1nc2cccc(NC(=O)c3cnccn3)c2c(=O)n1-c1cccc(OC(F)(F)F)c1 [Compound 4, N-(2-methyl-4-oxo-3-(3-(trifluoromethoxy)phenyl)-3,4-dihydroquinazolin-5-yl)pyrazine-2-carboxamide]	4.30 to 5.00	> 150	< 50	–	–
Cc1nc2cccc(NC(=O)c3cccc(OCC(O)CO)n3)c2c(=O)n1-c1cccc(C(F)(F)F)c1 (stereo not drawn) [Compound 6, 6-(2,3-dihydroxypropoxy)-N-(2-methyl-4-oxo-3-(3-(trifluoromethyl)phenyl)-3,4-dihydroquinazolin-5-yl)picolinamide]	–	> 150	–	–	< 50
Cc1nc2cccc(NC(=O)c3cccc(OCC(O)CO)n3)c2c(=O)n1-c1cccc(OC(F)(F)F)c1 (stereo not drawn) [Compound 9, 6-(2,3-dihydroxypropoxy)-N-(2-methyl-4-oxo-3-(3-(trifluoromethoxy)phenyl)-3,4-dihydroquinazolin-5-yl)picolinamide]	–	> 150	< 50	–	–

Now from value to compound, other results behind:

pIC50 (SIRT2; [1])	Emax (SIRT1) [%]	EC1.5 (concentration for 1.5-fold activation) (SIRT1; read-out: SIRT1 EC1.5 UM) [µM]	Structure (SMILES)	pIC50 (SIRT2)	EC1.5 (concentration for 1.5-fold activation) (SIRT1; read-out: SIRT1 EC1.5 µM) [µM]
> 5.00	–	–	Cc1nc2cccc(NC(=O)c3cscn3)c2c(=O)n1-c1cccc(C(F)(F)F)c1 [Compound 1, N-(2-methyl-4-oxo-3-(3-(trifluoromethyl)phenyl)-3,4-dihydroquinazolin-5-yl)thiazole-4-carboxamide]	–	–
4.30 to 5.00	< 150	> 50	Cc1nc2cccc(NC(=O)Cc3cccnc3)c2c(=O)n1-c1cccc(OC(F)(F)F)c1 [Compound 5, N-(2-methyl-4-oxo-3-(3-(trifluoromethoxy)phenyl)-3,4-dihydroquinazolin-5-yl)-2-(pyridin-3-yl)acetamide]	–	–
–	> 150	< 50	Cc1nc2cccc(NC(=O)c3cccc(CN4CCOCC4)n3)c2c(=O)n1-c1cccc(C(F)(F)F)c1 [Compound 7, N-(2-methyl-4-oxo-3-(3-(trifluoromethyl)phenyl)-3,4-dihydroquinazolin-5-yl)-6-(morpholinomethyl)picolinamide]	–	–
–	> 150	< 50	Cc1nc2cccc(NC(=O)c3cscn3)c2c(=O)n1-c1cccc(C(F)(F)F)c1 [Compound 8, N-(2-methyl-4-oxo-3-(3-(trifluoromethyl)phenyl)-3,4-dihydroquinazolin-5-yl)thiazole-4-carboxamide]	–	–
